Data published in patent US10758513B2, “Modulators of mitochondrial protein import” (THE REGENTS OF THE UNIVERSITY OF CALIFORNIA, priority 2011, dated 2020).

Tests used:
HeLa cells [1] = assay: Cyt c release assay by cell fractionation in HeLa cells; format: cell-based; conditions: 50 μM MitoBloCK-6 12-16 h, 1 μM staurosporine 4 h
Procedure: For cyt c release assays, a cell fractionation kit (MitoSciences) was used. Briefly, HeLa or HEK293 cells were grown in 10 cm^2 dishes to 80% confluency and then cells were treated with DMSO or MitoBloCK-6 in complete medium for 12-16 h. […] Cells were fractionated to obtain cytosolic and mitochondrial fractions; 100 μg of each fraction was analyzed by SDS-PAGE. Blots were probed with ApoTrack cyt c apoptosis antibody cocktail (MitoSciences).

zebrafish embryos = assay: Zebrafish embryo development; format: in vivo
Procedure: Zebrafish used for o-dianisidine staining of red blood cells in DMSO and MitoBloCK-6 treated fish were albino lines generated from crosses of TL and TU fish. Line AB were injected with the ALR morpholino. Lines were maintained in a 14-hr light/10-hr dark cycle and mated for one hour to obtain synchronized embryonic development. […] Following treatment, embryos were imaged using a Leica MZ16F fluorescent stereoscope (TexasRed filter set) at 5× magnification. […] Embryos were allowed to mature to 2 dpf and then imaged like the MitoBloCK-6 treated embryos; embryos were imaged at day 2 because of concerns with morpholino dilution. Images were resized to 300 dpi without resampling using Adobe Photoshop software.

succinate dehydrogenase = biological target: T1, succinate dehydrogenase (Saccharomyces cerevisiae, UniProt Q00711); assay: Succinate dehydrogenase activity in WT mitochondria (oxygen electrode); format: biochemical, yeast; conditions: 25 or 50 μM MitoBloCK-6; 20 mM malonate control
T1 construct: endogenous in cells; host or cells: mitochondria isolated from WT yeast
Procedure: (A) 160 μM insulin was reacted with 3 units of PDI in the presence of buffer, 1 mM bacitracin, or MitoBloCK-6 (MB-6). Reduction of insulin chains was initiated by the addition of DTT. The samples were incubated for 30 min at room temperature and then the turbidity was measured at a wavelength of 630 nm using a Bio-Tek plate-reader. (B) Succinate dehydrogenase activity was measured in WT mitochondria using a Clark-type oxygen electrode. Respiration was initiated with 10 mM succinate and, when steady-state respiration was established, 25 or 50 μM MitoBloCK-6, 50 μM ES-1, 50 μM ES-2, or 1% DMSO was added. Controls included 20 mM malonate that inhibits succinate dehydrogenase activity and CCCP that uncouples electron transport. The rate is reported as nmol O2 consumed/sec.
Oxygen consumption of WT mitochondria was measured using methods previously described (Claypool et al., 2008a). Briefly, purified WT mitochondria (25 mg/ml) were thawed on ice and tested within 2 hours. […] Consumption rate was monitored for approximately 2 min. MitoBloCK-6 or DMSO was then added to a final vehicle concentration of 1% and respiration was measured for another approximately 1.5 min. […] Consumption rate was monitored for approximately 3 mins. MitoBloCK-6, SAR compounds, or DMSO was then added and respiration measured for another 3 mins. […]

WT mitochondria = assay: Respiration of WT mitochondria with NADH (oxygen electrode); format: biochemical, yeast; conditions: 25 μM MitoBloCK-6; CCCP control
Procedure: Oxygen consumption of WT mitochondria was measured using methods previously described (Claypool et al., 2008a). Briefly, purified WT mitochondria (25 mg/ml) were thawed on ice and tested within 2 hours. Oxygen consumption assays were performed with a Clark-type oxygen electrode in a stirred thermostatically controlled 1.5-ml chamber at 25° C. (Oxytherm, Hansatech). […] Consumption rate was monitored for approximately 2 min. […] Consumption rate was monitored for approximately 3 mins. MitoBloCK-6, SAR compounds, or DMSO was then added and respiration measured for another 3 mins. Uncoupled respiration was achieved as described above.

[2] = system: tim10-1 tim9S mitochondria; assay: Membrane potential with rhodamine 123; format: biochemical, yeast; conditions: 25 μM MitoBloCK-1; CCCP as control
Procedure: Membrane potential measurement assays were conducted with a SPEX spectrofluorometer system (HORIBA Jobin Yvon) with a magnetically stirred cuvette held at 25° C. The quenching of rhodamine 123 fluorescence (Em, =530 nm and Ex=485 nm) was used as previously described (9) to detect changes in mitochondrial membrane potential. Purified tim10-1 tim9S mitochondrial aliquots were thawed and resuspended in respiration buffer (0.65 M mannitol, 0.3 mM EGTA, 3 mm tris-phosphate, 10 mM tris-maleate, pH 6.75). Trials were started by adding 100 nM of rhodamine 123 to respiration buffer. After a period of signal stabilization, mitochondria were added to a concentration of 100 μg/mL. Either drug or DMSO was then added to a final vehicle concentration of 1% following the establishment of baseline quenched fluorescence. Finally, mitochondria were uncoupled with 3 μM CCCP.

[3] = system: tim10-1 tim9S mitochondria; assay: Respiration (oxygen electrode) of tim10-1 tim9S mitochondria; format: biochemical, yeast; conditions: NADH; 25 μM MitoBloCK-1; CCCP as control
Procedure: Oxygen consumption of […] mitochondria was measured using methods previously described (8). Briefly, purified […] mitochondria aliquots (25 mg/mL) were thawed on ice and tested within 2 hours. A Clark-type oxygen electrode in a stirred, thermostatically controlled 1.5-ml chamber at 25° C. (Oxytherm; Hansatech) facilitated measurement. […] Consumption rate was monitored for approximately 2 min.

HeLa cells [4] = assay: Mitochondrial morphology in HeLa cells; format: cell-based; conditions: 50 μM 12-16 h, up to 100 μM, 20 μM CCCP control
Procedure: (A) HeLa cells were transiently transfected with Su9-EGFP. Following transfection, cells were treated for 12 hr with 50 μM MitoBloCK-6 or control 1% DMSO. As a positive control, cells were incubated with 20 μM CCCP to dissipate the membrane potential. Mitochondria were also stained with 10 μM MitoTracker Red. Mitochondrial morphology was assessed by fluorescence microscopy and the Mitotracker Red and GFP channels were superimposed (Merge). (B) The effect of MitoBloCK-6 on the viability of HeLa cells was assessed with a MTT-based toxicology assay. Cultured cells were treated for 12-16 hr with DMSO or 50 μM and 100 μM MitoBloCK-6. Bars display mean cell viability where 100% was defined as signal from untreated samples. Error bars display standard error of the mean (n=5). (C) The release of cyt c was investigated. Cells were treated with 1% DMSO or 50 μM MitoBloCK-6 for 12-16 hr and fractionated into mitochondrial (M) and cytosolic (C) fractions. Release of mitochondrial proteins was assessed by immunoblot analysis with antibodies against cyt c, Complex V (ATP synthase subunit alpha), pyruvate dehydrogenase (PDH), and cytosolic GAPDH. Treatment with 1 μM staurosporine for 4 hr induced apoptosis and was included as a positive control.
For microscopy experiments, HeLa or HEK293 cells were transiently transfected with Su9-EGFP (Lipofectamine, Invitrogen) at 80% confluency. […]

Erv1 = biological target: T2, Erv1 (Saccharomyces cerevisiae, UniProt P27882); assay: In vitro Erv1 oxidase activity, Amplex Red-HRP assay; format: biochemical, yeast; conditions: 100 μM
T2 construct: made in house
T2 sequence (P27882 1-189): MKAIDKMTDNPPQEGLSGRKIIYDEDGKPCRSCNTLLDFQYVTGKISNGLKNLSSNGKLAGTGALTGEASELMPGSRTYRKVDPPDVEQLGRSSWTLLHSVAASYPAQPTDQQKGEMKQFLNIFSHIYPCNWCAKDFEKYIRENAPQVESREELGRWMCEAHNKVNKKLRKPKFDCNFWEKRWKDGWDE
Procedure: The primary chemical screen used fresh recombinant Erv1 (in buffer 30 mM Hepes, pH 7.4, 100 mM NaCl, 1 mM EDTA) at a concentration of 10 μM, which was expressed as described previously. […] A Biomek FX (Beckman Coulter) was used to pin transfer 0.5 μl of compound from 1 mM stock or DMSO to respective wells. Approximate screening
concentration was 12.5 μM. After completed compound transfer, all plates were incubated at 25° C. in a humidified incubator for 1 hour. A Titertek multidrop was used to dispense 15 μl of Amplex Red-horseradish peroxidase (HRP) (Sigma) mix into all wells of the 384-well plate. The final concentration of Amplex Red and HRP were 46 μM and 0.092 U/ml, respectively. The Amplex Red-HRP solution was shielded from light during the entire experiment. The plates were incubated for an additional 10 min and then 15 μl of the substrate DTT (20 μM) was added to initiate the reduction of 02 to H2O2. […] Plates were then read at an endpoint using an excitation wavelength of 545 nm and an emission wavelength of 590 nm. […]
H2O2 production was measured using a standard fluorometric assay with Amplex Red and horseradish peroxidase (HRP). […] Fluorescence intensity was measured and reactions that were inhibited by more than 50% were picked as potential Erv1 inhibitors and selected for secondary analysis.

[5] = system: tim10-1 tim9S mitochondria; assay: In vitro import of radiolabeled precursors into tim10-1 tim9S mitochondria; format: biochemical, yeast; conditions: SAR study
Procedure: Prior to import into purified mitochondria, ^35S-methionine and cysteine labeled proteins were generated with TNT Quick Coupled Transcription/Translation kits (Promega) and plasmids carrying the gene of interest. Transcription of genes was driven by either a T7 or SP6 promoter. Import reactions were conducted according to established methods. After frozen mitochondria aliquots were thawed and added to the import buffer at a final concentration of 100 μg/mL, drug or DMSO vehicle was added as indicated. A final vehicle concentration of 1% was used in all experiments. Following 15 minute incubation at 25° C., import reactions were initiated by the addition of […] of translation mix. Aliquots were removed at intervals during the reaction timecourse and import was terminated with either cold buffer, 25 μg/mL trypsin, or a combination of both. If trypsin was added to digest unimported precursor protein, soybean trypsin inhibitor (STI) was subsequently added in excess after 15 minute incubation on ice. After a final recovery of by centrifugation (8,000×g, 5 minutes), mitochondria were disrupted in Laemmli sample buffer. Imports of membrane proteins (AAC, PiC, Tom40, Tim22, and Tim23) included a carbonate extraction step to remove proteins that had not inserted into the membrane (Koehler C M, et al. (1998), Science 279:369-373). Samples from import reaction time points were resolved by SDS polyacrylamide gel electrophoresis (SDSPAGE) and gels were dried prior to exposing to film.

T1 sequence (Q00711 29-640): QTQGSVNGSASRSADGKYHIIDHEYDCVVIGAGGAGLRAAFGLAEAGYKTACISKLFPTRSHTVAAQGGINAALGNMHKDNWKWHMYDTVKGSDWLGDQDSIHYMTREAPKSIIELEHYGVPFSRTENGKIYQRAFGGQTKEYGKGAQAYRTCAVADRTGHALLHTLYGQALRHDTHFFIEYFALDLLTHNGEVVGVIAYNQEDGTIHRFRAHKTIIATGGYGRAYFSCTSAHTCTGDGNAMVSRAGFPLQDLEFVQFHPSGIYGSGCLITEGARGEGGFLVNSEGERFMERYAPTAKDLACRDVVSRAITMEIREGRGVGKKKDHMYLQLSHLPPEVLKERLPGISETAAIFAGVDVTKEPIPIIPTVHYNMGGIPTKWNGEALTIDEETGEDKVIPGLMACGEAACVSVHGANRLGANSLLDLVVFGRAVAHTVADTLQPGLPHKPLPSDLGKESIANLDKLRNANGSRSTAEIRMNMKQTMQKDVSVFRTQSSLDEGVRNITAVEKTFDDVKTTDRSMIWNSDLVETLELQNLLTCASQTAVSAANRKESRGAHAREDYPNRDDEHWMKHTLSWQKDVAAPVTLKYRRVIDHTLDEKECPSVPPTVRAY
T1 sequence (P21801 21-266 partner): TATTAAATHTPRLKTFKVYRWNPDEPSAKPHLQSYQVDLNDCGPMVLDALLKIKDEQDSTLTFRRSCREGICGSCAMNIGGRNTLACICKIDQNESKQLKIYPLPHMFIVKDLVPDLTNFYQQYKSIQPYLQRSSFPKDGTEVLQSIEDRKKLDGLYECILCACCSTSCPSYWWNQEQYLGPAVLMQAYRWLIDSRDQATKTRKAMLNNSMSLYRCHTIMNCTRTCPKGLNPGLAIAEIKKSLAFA
T1 sequence (P33421 51-198 partner): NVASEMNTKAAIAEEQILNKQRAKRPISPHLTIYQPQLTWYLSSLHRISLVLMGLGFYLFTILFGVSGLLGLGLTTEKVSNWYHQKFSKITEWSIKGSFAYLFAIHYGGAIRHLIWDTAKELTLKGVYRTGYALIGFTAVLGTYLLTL
T1 sequence (P37298 32-181 partner): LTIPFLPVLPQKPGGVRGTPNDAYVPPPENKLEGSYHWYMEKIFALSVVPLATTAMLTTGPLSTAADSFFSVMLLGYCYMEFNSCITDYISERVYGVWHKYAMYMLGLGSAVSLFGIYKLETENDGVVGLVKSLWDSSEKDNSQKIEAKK

Molecule: CN[C@@H]1C[C@H]2O[C@@](C)([C@@H]1OC)n1c3ccccc3c3c4c(c5c6ccccc6n2c5c31)C(=O)NC4 [staurosporine]
- cyt c release (HeLa cells [1]): showed cyt c release

Molecule: ALR morpholino: ATG morpholino targeted to zebrafish ALR protein (GAGGGTTGCCAGATCTCTGTTAAAT) (all phosphorodiamidate morpholino (PMO)) [reference compound]
- phenotypes of morpholino-injected embryos (zebrafish embryos; 4 ng injected in 1-cell embryos): identical to that of MitoBlock-6 exposure
- decreased heart rate (zebrafish embryos; embryos treated with MitoBloCK-6 or ALR morpholino): 25%

Molecule: O=C(O)CC(=O)O [malonate]
- succinate dehydrogenase activity (oxygen consumption rate with succinate) (succinate dehydrogenase): disrupted

Molecule: N#CC(C#N)=NNc1cccc(Cl)c1 [CCCP, carbonyl cyanide m-chlorophenylhydrazone, reference compound]
- oxygen consumption rate (NADH respiration) (WT mitochondria): respiration increased drastically
- rhodamine 123 fluorescence (membrane potential) [2]: sharp increase in fluorescence
- rate of respiration [3]: respiration increased drastically
- mitochondrial network / morphology (HeLa cells [4]): caused the mitochondrial network to collapse around the nucleus

Molecule: O=Cc1cc(Cl)cc(Cl)c1O [3,5-dichlorosalicylaldehyde, reference compound]
- Erv1 activity (Erv1): did not inhibit Erv1 activity

Molecule: Cc1ccc2c(c1)C1CCC/C(=N\NC(N)=S)C1N2C (stereo not shown) [Analog B]
- inhibition of import of AAC by analogs [5]: Analog D was the only compound to inhibit import of AAC
